Assay results reported in patent EP4603105A1, “PHARMACEUTICAL COMPOSITION CONTAINING CYCLIC COMPOUND HAVING SELECTIVE KRAS INHIBITORY EFFECT AGAINST HRAS AND NRAS” (CHUGAI SEIYAKU KABUSHIKI KAISHA, priority 2022, dated 2024).
pIC50: −log10 of the molar value. Where a SMILES comes first, the peptide text is derived from it. Bridges are numbered along the chain shown (N, C = ends). [ ]: non-standard residue; d: D form. The star is where a group is joined. hPhe(3-Cl-4-CF3) = N[C@@H](CCc1ccc(C(F)(F)F)c(Cl)c1)C(=O)O; NPrPhe(4-CF3) = CCCN[C@@H](Cc1ccc(C(F)(F)F)cc1)C(=O)O; 3Oxa8azabicyclo(3.2.1)octane = C1CC2COCC1N2*; NEtPhe(4-Me) = CCN[C@@H](Cc1ccc(C)cc1)C(=O)O; NMeGly(cPent) = CN[C@H](C(=O)O)C1CCCC1; Hyp = O=C(O)[C@@H]1C[C@@H](O)CN1; NMeD = CN[C@@H](CC(=O)O)C(=O)O; NMeL = CN[C@@H](CC(C)C)C(=O)O; Morpholide = C1CN(*)CCO1; Ac5c = NC1(C(=O)O)CCCC1; Ac4c = NC1(C(=O)O)CCC1; NEtG = CCNCC(=O)O; Sar = CNCC(=O)O

Tests used:
[1] = tested on: human lung cancer strain NCI-H441; type: cell-based
Summary of the method: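 Signal came from […] measured per well once the reagent was added. Beforehand, cells were cultured at 37°C and 5% carbon dioxide on a compound series serially diluted in dimethyl sulfoxide.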

[2] = target: GDP-bound NRAS wild-type protein (Homo sapiens, UniProt P01111); experiment: Binding to NRAS by surface plasmon resonance (SPR), KD and KD ratio to KRAS
Summary of the method: (§1)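 Recombinant RAS proteins bearing a biotinylated Avi tag and loaded with GDP served as the captured ligand, recaptured fresh every cycle. Binding responses were referenced to an uncoated surface and a buffer-only blank cycle. Dissociation constants were obtained by 1:1 model fitting at 30°C.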

HRAS wild-type protein = HRAS wild-type protein (Homo sapiens, UniProt P01112); experiment: Binding to HRAS by surface plasmon resonance (SPR), KD and KD ratio to KRAS
Summary of the method: as §1

[3] = ratio of KD value for GDP-bound NRAS wild-type protein to KD value for KRAS (SPR)
[4] = ratio of KD value for HRAS wild-type protein to KD value for KRAS (SPR)
[5] = ratio of KD for GDP-bound NRAS wild-type protein to KD for KRAS
[6] = ratio of KD for HRAS wild-type protein to KD for KRAS
[7] = ratio of the KD value with respect to GDP-bound NRAS wild-type protein to the KD value with respect to KRAS
[8] = ratio of the KD value with respect to HRAS wild-type protein to the KD value with respect to KRAS

Chain of HRAS wild-type protein (P01112 whole entry): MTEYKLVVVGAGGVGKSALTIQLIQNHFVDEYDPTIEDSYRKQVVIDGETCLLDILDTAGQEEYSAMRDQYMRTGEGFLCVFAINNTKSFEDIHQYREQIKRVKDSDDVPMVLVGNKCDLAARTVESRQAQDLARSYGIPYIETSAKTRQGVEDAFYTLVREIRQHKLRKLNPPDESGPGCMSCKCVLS
Chain of GDP-bound NRAS wild-type protein (P01111 whole entry): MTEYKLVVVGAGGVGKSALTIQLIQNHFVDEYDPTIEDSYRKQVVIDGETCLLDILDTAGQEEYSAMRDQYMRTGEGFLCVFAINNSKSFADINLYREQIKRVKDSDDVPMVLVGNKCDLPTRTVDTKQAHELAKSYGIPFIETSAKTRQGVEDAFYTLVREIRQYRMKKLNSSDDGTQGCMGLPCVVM

pIC50 [1]	SMILES	NRAS /KRAS [2, 3]	HRAS /KRAS (HRAS wild-type protein; [4])	NRAS /KRAS [2, 5]	HRAS /KRAS (HRAS wild-type protein; [6])	NRAS /KRAS [2, 7]	HRAS /KRAS (HRAS wild-type protein; [8])
8.31	CCO[C@@H]1C[C@H]2C(=O)NC3(CC(C)(C)C3)C(=O)N(C)[C@@H](C3CCCC3)C(=O)N(CC)[C@H](C(=O)N(C)C)CC(=O)N(C)[C@@H](CC)C(=O)N[C@@H]([C@@H](C)CC)C(=O)N(C)CC(=O)N(C)[C@H]3C/C=C\CCN(C3=O)[C@@H](Cc3ccc(C(F)(F)F)cc3)C(=O)N(C)CC(=O)N[C@@H](CCc3cc(F)c(C(F)(F)F)c(F)c3)C(=O)N2C1 [PP1768]	A (a compound having 10 or more and less than 20 is denoted as A)	A (a compound having 10 or more and less than 20 is denoted as A)				
6.03	CCCN1C(=O)CN(C)C(=O)CN(C)C(=O)[C@H]([C@@H](C)CC)NC(=O)[C@@H]2COCCCC[C@@](C)(NC(=O)[C@@H]3C[C@@H](OCC)CN3C(=O)[C@H](CCc3cc(F)c(C(F)(F)F)c(F)c3)NC(=O)CN(C)C(=O)[C@@H]1Cc1ccc(C(F)(F)F)cc1)C(=O)N(C)[C@@H](C1CCCC1)C(=O)N(C)[C@H](C(=O)N1CCOCC1)CC(=O)N2C [PP0899]			A (a compound having 10 or more and less than 20 is denoted as A)	B (a compound having 3 or more and less than 10 is denoted as B)		
6.78	CCCN1C(=O)CN(C)C(=O)CN(CC)C(=O)[C@H]([C@@H](C)CC)NC(=O)[C@H](CC(C)C)N(C)C(=O)C[C@@H](C(=O)N2CCOCC2)NC(=O)[C@H](C2CCCC2)N(C)C(=O)C2(CCC2)NC(=O)[C@@H]2CCCN2C(=O)[C@H](CCc2ccc(C(F)(F)F)c(Cl)c2)NC(=O)CN(C)C(=O)[C@@H]1Cc1ccc(C(F)(F)F)cc1 [PP0332] ([NMeL]I[NEtG][Sar][NPrPhe(4-CF3)][Sar][hPhe(3-Cl-4-CF3)]P[Ac4c][NMeGly(cPent)]D-Morpholide; lactam N-11)			B (a compound having 3 or more and less than 10 is denoted as B)	B (a compound having 3 or more and less than 10 is denoted as B)		
7.66	CC[C@H](C)[C@@H]1NC(=O)[C@H](CC(C)C)N(C)C(=O)C[C@@H](C(=O)N2CCOCC2)N(C)C(=O)[C@H](C2CCCC2)N(C)C(=O)C2(CCCC2)NC(=O)[C@@H]2CCCN2C(=O)[C@H](CCc2ccc(C(F)(F)F)c(Cl)c2)NC(=O)CN(C)C(=O)[C@H](Cc2ccc(OC(F)(F)F)cc2)N2CCCC[C@@H](C2=O)N(C)C(=O)CN(C)C1=O [PP0536]					B (a compound having 3 or more and less than 10 is denoted as B)	B (a compound having 3 or more and less than 10 is denoted as B)
8.80	CCCN1C(=O)CN(C)C(=O)CN(C)C(=O)[C@H]([C@@H](C)CC)NC(=O)[C@H](CC(C)C)N(C)C(=O)C[C@@H](C(=O)N2CCOCC2)N(C)C(=O)[C@H](C2CCCC2)N(C)C(=O)C2(CCCC2)NC(=O)[C@@H]2C[C@@H](OCC)CN2C(=O)[C@H](CCc2ccc(C(F)(F)F)c(Cl)c2)NC(=O)CN(C)C(=O)[C@@H]1Cc1ccc(C(F)(F)F)cc1 [PP0233] ([NMeL]I[Sar][Sar][NPrPhe(4-CF3)][Sar][hPhe(3-Cl-4-CF3)][Hyp](Et)[Ac5c][NMeGly(cPent)][NMeD]-Morpholide; lactam N-11)			B (a compound having 3 or more and less than 10 is denoted as B)	C (A compound having a KD ratio of 0.1 or more and less than 3 is denoted as C)		
7.59	CCC(CC)[C@H]1C(=O)N(C)[C@H](C(=O)N(C)C)CC(=O)N(C)[C@H]2CCC/C=C/c3ccc(cc3)C[C@@H](C(=O)N(C)CC(=O)N[C@@H](CCc3ccc(Cl)c(Cl)c3)C(=O)N3CCC[C@H]3C(=O)NC3(CC(C)(C)C3)C(=O)N1C)N1CC/C=C\C[C@@H](C1=O)N(C)C(=O)CN(C)C(=O)[C@H]([C@@H](C)CC)NC2=O [PP2603]			AA (a compound having 20 or more is denoted as AA)	A (a compound having 10 or more and less than 20 is denoted as A)		
7.76	CCO[C@@H]1C[C@H]2C(=O)NC3(CCC3)C(=O)N(C)[C@@H](C3CCCC3)C(=O)N(C)[C@H](C(=O)N3CCOCC3)CC(=O)N(C)[C@@H](CC)C(=O)N[C@@H]([C@@H](C)CC)C(=O)N3CC[C@H]3C(=O)N(C)[C@H]3C[C@@H](C)CCN(C3=O)[C@@H](Cc3ccc(C(F)(F)F)cc3)C(=O)N(C)CC(=O)N[C@@H](CCc3cc(F)c(C(F)(F)F)c(F)c3)C(=O)N2C1 [PP1028]			B (a compound having 3 or more and less than 10 is denoted as B)	B (a compound having 3 or more and less than 10 is denoted as B)		
7.76	CCO[C@@H]1C[C@H]2C(=O)NC3(CCC3)C(=O)N(C)[C@@H](C3CCCC3)C(=O)N(C)[C@H](C(=O)N(C)C)CC(=O)N(C)[C@@H](CCOC)C(=O)N[C@@H]([C@@H](C)CC)C(=O)N(C)CC(=O)N(C)[C@H]3CCCCN(C3=O)[C@@H](Cc3ccc(C(F)(F)F)cc3)C(=O)N(C)CC(=O)N[C@@H](CCc3cc(F)c(C(F)(F)F)c(F)c3)C(=O)N2C1 [PP0705]					C (A compound having a KD ratio of 0.1 or more and less than 3 is denoted as C)	C (A compound having a KD ratio of 0.1 or more and less than 3 is denoted as C)
8.08	CC[C@H](C)[C@@H]1NC(=O)[C@H](CC2CC2)N(C)C(=O)C[C@@H](C(=O)N(C)C)N(C)C(=O)[C@H](C2CCCC2)N(C)C(=O)C2(CCCC2)NC(=O)[C@@H]2CC(F)(F)CN2C(=O)[C@H](CCc2cc(F)c(C(F)(F)F)c(F)c2)NC(=O)CN(C)C(=O)[C@H](Cc2ccc(C(F)(F)F)cc2)N2CC/C=C\C[C@@H](C2=O)N(C)C(=O)CN(C)C1=O [PP1513]	A (a compound having 10 or more and less than 20 is denoted as A)	A (a compound having 10 or more and less than 20 is denoted as A)				
8.40	CCO[C@@H]1C[C@H]2C(=O)N(C)C3(CCCC3)C(=O)N(C)[C@@H](C3CCCC3)C(=O)N(C)[C@H](C(=O)N(C)C)CC(=O)N(C)[C@@H](CC)C(=O)N[C@@H]([C@@H](C)CC)C(=O)N(C)CC(=O)N(C)[C@H]3C/C=C\CCN(C3=O)[C@@H](Cc3ccc(C)cc3)C(=O)N(C)CC(=O)N[C@@H](CCc3cc(F)c(C(F)(F)F)c(F)c3)C(=O)N2C1 [PP1806]	A (a compound having 10 or more and less than 20 is denoted as A)	B (a compound having 3 or more and less than 10 is denoted as B)				
7.69	CCO[C@@H]1C[C@H]2C(=O)NC3(CCC3)C(=O)N(C)[C@@H](C3CCCC3)C(=O)N(C)[C@H](CC)CC(=O)N(C)[C@@H](CC)C(=O)N[C@@H]([C@@H](C)CC)C(=O)N(C)CC(=O)N(C)[C@H]3C/C=C\CCN(C3=O)[C@@H](Cc3ccc(C(F)(F)F)cc3)C(=O)N(C)CC(=O)N[C@@H](CCc3cc(F)c(C(F)(F)F)c(F)c3)C(=O)N2C1 [PP1625]	B (a compound having 3 or more and less than 10 is denoted as B)	B (a compound having 3 or more and less than 10 is denoted as B)				
8.20	CCO[C@@H]1C[C@H]2C(=O)N(C)C3(CC(C)(C)C3)C(=O)N(C)[C@@H](C3CCCC3)C(=O)N(C)[C@H](C(=O)N(C)C)CC(=O)N(C)[C@H]3CCCC/C=C/c4ccc(cc4)C[C@@H](C(=O)N(C)CC(=O)N[C@@H](CCc4ccc(Cl)c(Cl)c4)C(=O)N2C1)N1CC/C=C\C[C@@H](C1=O)N(C)C(=O)CN(C)C(=O)[C@H]([C@@H](C)CC)NC3=O [PP3062]			A (a compound having 10 or more and less than 20 is denoted as A)	A (a compound having 10 or more and less than 20 is denoted as A)		
6.92	CCO[C@H]1CCN2C(=O)[C@H](CCc3cc(F)c(C(F)(F)F)c(F)c3)NC(=O)CN(C)C(=O)[C@H](Cc3ccc(C(F)(F)F)cc3)N3CCCCC[C@@H](C3=O)N(C)C(=O)CN(C)C(=O)[C@H]([C@@H](C)CC)NC(=O)[C@H](CC(C)C)N(C)C(=O)C[C@@H](C(=O)N3CCOCC3)N(C)C(=O)[C@H](C3CCCC3)N(C)C(=O)C3(CCC3)NC(=O)[C@H]12 [PP1068]			A (a compound having 10 or more and less than 20 is denoted as A)	B (a compound having 3 or more and less than 10 is denoted as B)		
6.21	CC[C@H](C)[C@@H]1NC(=O)[C@H](CC(C)C)N(C)C(=O)C[C@@H](C(=O)N2CCOCC2)N(C)C(=O)[C@H](C2CCCC2)N(C)C(=O)C2(CCC2)NC(=O)[C@@H]2[C@H](OC)CCN2C(=O)[C@H](CCc2cc(F)c(C(F)(F)F)c(F)c2)NC(=O)CN(C)C(=O)[C@H](Cc2ccc(C(F)(F)F)cc2)N2CCCC[C@@H](C2=O)N(C)C(=O)CN(C)C1=O [PP1078]			B (a compound having 3 or more and less than 10 is denoted as B)	B (a compound having 3 or more and less than 10 is denoted as B)		

SMILES	pIC50 [1]	NRAS /KRAS [2, 3]	HRAS /KRAS (HRAS wild-type protein; [4])	NRAS /KRAS [2, 5]	HRAS /KRAS (HRAS wild-type protein; [6])	NRAS /KRAS [2, 7]	HRAS /KRAS (HRAS wild-type protein; [8])
CC[C@H](C)[C@@H]1NC(=O)[C@H](CC(C)C)N(C)C(=O)C[C@@H](C(=O)N2C3CCC2COC3)N(C)C(=O)[C@H](C2CCCC2)N(C)C(=O)C2(CCCC2)NC(=O)[C@@H]2CCCN2C(=O)[C@H](CCc2ccc(C(F)(F)F)c(Cl)c2)NC(=O)CN(C)C(=O)[C@H](Cc2ccc(C)cc2)N(CC)C(=O)CN(C)C(=O)CN(C)C1=O [PP0051] ([NMeL]I[Sar][Sar][NEtPhe(4-Me)][Sar][hPhe(3-Cl-4-CF3)]P[Ac5c][NMeGly(cPent)][NMeD]-{3Oxa8azabicyclo(3.2.1)octane}; lactam N-11)	7.66			C (A compound having a KD ratio of 0.1 or more and less than 3 is denoted as C)	C (A compound having a KD ratio of 0.1 or more and less than 3 is denoted as C)		
